In patent US20220125784A1, “METHODS AND COMPOUNDS FOR INHIBITION OF INACTIVATION OF VOLTAGE-GATED SODIUM CHANNELS” (SIMON FRASER UNIVERSITY, priority 2019, published 2022):
pIC50: −log10 of the molar value. Where two headings read alike, the source gives them in different places. Blank lines part the entries; values can stand above or below the molecule they belong to.

Columns and labels:
Format in all cases: cell-based
[1] = target: T1, cardiac (Nav1.5) sodium channel (Homo sapiens, UniProt Q14524); test: High-throughput patch clamp (QPatch/Qube 384), double voltage-pulse protocol, stable HEK293 Nav1.5; conditions: for deceleration of fast inactivation onset kinetics compared to control: preconditioning −120 mV
T1 construct: expressed in transfected cells
T1 sequence (Q14524 whole entry): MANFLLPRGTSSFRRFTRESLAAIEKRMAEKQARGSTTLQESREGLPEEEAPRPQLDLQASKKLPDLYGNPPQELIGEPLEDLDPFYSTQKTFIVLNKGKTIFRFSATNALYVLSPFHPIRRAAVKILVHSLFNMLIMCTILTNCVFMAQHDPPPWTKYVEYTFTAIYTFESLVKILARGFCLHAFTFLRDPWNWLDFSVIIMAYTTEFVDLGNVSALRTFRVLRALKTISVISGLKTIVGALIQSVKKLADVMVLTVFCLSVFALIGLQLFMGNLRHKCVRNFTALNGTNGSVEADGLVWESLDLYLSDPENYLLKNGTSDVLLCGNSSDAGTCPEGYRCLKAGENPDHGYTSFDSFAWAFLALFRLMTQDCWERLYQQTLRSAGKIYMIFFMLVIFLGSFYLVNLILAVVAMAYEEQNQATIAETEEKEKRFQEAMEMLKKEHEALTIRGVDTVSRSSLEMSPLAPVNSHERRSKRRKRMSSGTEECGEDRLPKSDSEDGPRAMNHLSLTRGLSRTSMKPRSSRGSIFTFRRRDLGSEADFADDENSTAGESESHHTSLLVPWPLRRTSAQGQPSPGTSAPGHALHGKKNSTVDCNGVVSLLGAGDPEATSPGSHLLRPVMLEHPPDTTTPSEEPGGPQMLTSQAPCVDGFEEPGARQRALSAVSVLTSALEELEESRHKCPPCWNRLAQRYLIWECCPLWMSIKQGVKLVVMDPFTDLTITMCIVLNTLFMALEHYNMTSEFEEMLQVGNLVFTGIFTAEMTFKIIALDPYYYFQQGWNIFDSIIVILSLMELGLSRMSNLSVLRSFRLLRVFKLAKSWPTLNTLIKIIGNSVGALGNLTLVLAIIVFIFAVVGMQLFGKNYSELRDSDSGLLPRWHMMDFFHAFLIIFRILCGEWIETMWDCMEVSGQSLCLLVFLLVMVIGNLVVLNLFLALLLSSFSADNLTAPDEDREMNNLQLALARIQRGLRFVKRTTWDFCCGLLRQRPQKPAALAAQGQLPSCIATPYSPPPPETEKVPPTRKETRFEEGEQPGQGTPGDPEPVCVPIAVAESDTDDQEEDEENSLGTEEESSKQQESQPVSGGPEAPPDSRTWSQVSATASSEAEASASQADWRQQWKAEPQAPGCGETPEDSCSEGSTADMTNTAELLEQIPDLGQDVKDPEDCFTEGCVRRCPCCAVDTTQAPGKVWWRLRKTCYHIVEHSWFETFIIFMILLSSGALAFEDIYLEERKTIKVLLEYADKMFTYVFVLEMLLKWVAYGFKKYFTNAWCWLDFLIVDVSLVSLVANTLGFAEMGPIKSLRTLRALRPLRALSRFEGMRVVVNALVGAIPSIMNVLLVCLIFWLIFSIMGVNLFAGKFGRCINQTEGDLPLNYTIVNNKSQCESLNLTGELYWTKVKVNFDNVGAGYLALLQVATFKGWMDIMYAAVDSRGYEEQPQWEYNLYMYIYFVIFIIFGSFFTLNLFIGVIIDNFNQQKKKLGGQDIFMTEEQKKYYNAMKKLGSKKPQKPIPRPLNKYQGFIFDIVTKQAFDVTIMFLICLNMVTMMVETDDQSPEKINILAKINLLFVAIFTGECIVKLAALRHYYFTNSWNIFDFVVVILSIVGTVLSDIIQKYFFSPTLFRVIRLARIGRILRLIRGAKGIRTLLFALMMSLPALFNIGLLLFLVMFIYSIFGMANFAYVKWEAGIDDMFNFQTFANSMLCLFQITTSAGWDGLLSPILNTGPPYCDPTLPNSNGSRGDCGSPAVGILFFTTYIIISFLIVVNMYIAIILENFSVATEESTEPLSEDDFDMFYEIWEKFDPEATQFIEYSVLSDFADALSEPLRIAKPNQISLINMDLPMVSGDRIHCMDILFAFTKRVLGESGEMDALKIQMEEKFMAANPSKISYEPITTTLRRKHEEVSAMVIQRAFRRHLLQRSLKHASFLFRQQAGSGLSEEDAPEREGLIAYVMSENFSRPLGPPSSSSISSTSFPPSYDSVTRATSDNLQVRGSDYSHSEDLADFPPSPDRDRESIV
Description: (§1) In another set of studies, we used high-throughput patch clamp techniques using the QPatch (Qube) 384 to screen compounds against both neuronal and cardiac sodium channels. We used a different electrophysiology assay (double voltage-pulse protocol; FIG. 3C) to detect potentiators, inhibitors, and compounds that do both. The protocol assesses these parameters at both rest and partially inactivated holding potentials. For this assay, we used nine compounds from Table 2 that were diluted to 50 μM in DMSO for biophysical assessment of channel gating. The extracellular solution used in these experiments was Ringer solution.
(§2) The nine compounds were screened against the wild type (WT) cardiac (Nav1.5) and neuronal (Nav1.1) sodium channel α-subunits stably expressed in Human Embryonic Kidney (HEK293) along with the β1-subunit.
(§3) Currents were assessed by a test pulse of 0 mV from a holding potential at rest (−120 mV) before preconditioning at the appropriate V1/2 for the sodium channel subtype (V1/2=−90 mV and V1/2=−65 mV for Nav1.5 and Nav1.1, respectively) for 10 s. Parameters were tested following 5 min of incubation with the compounds and normalized to control (vehicle). Peak current, the time constant of inactivation, and the area under the curve (AUC) were measured.

[2] = target: T2, neuronal (Nav1.1) sodium channel (Homo sapiens, UniProt P35498); test: High-throughput patch clamp (QPatch/Qube 384), double voltage-pulse protocol, stable HEK293 Nav1.1
T2 construct: expressed in transfected cells
Description: as §1, §2, §3

[3] = target: T3, WT Nav1.5-α subunits (Homo sapiens, UniProt Q14524); test: Whole-cell patch clamp, single voltage-pulse protocol (peak INa, conductance, fast inactivation) in transiently transfected HEK293 cells; conditions: for Peak INa −20 mV: normalized peak INa, 37° C.
T3 construct: expressed in transfected cells; host or cells: HEK293 (transient transfection)
T3 sequence (Q14524 whole entry): as above
Description: (§4) In one set of studies, we used a whole-cell patch clamp technique with single voltage-pulse protocols (FIGS. 3A-B) to characterize compounds ZINC38767171, ZINC39699427, ZINC40014265, ZINC64470729, ZINC64470737 and ZINC64470745. Whole-cell patch clamp was performed in extracellular solution containing (in mM): 140 NaCl, 4 KCl, 2 CaCl2, 1 MgCl2, and 10 HEPES (pH 7.4 adjusted with CsOH). The intracellular pipettes were dipped in dental wax and thermally polished to attain a resistance of 1.0-1.5 MΩ. The intracellular solutions contained (in mM): 130 CsF, 10 NaCl, 10 HEPES, and 10 EGTA titrated to pH 7.4. The six compounds, ZINC38767171, ZINC39699427, ZINC40014265, ZINC64470729, ZINC64470737 and ZINC64470745, chosen for electrophysiology characterization, ordered from MolPort (Easy compound ordering services), were diluted to 10 μM, 50 μM, and 100 μM in extracellular solution for biophysical assessment of channel gating.
(§5) The six compounds were screened against wild type (WT) Nav1.5-α subunits at the optimal physiological temperature of 37° C. Human Embryonic Kidney (HEK293) cells were transfected with WT Nav1.5-α subunits (transient transfections). The α subunits were co-expressed with the β1 subunit and eGFP (enhanced green fluorescence protein) in a 2:1:2 ratio, respectively.
Conductance was measured by a protocol that depolarized the membrane from −100 mV to +80 mV in increments of +5 mV for 19 ms. Prior to the test pulse, channels were allowed to recover from fast inactivation at −130 mV for 197 ms. The tested compounds had no effect on the conductance midpoint (FIGS. 6A-F).
At voltages greater than −50 mV, the fast inactivation T values were calculated from the mono-exponential fit to the decay of sodium current.

[4] = target: T3, WT Nav1.5-α subunits; test: Whole-cell patch clamp, use-dependence (slow inactivation) protocol at 6 Hz in transiently transfected HEK293 cells
Description: as §4, §5
Slow inactivation (SI) was indirectly determined by measuring use-dependence, which is a physiologically-relevant protocol. The protocol includes a series of 500 110 ms depolarizing pulses to 0 mV followed by a 55 ms-90 mV recovery pulse at a frequency 6 Hz. With repetitive depolarizations, Nav1.5 channels accumulate into slow inactivation.

[5] = HEK293, holding potential −120 mV, read-out: Normalized inhibition of peak sodium current
[6] = 50 μM, holding potential −120 mV

effect on tau of inactivation from holding potential −120 mV ([2]; 50 μM): accelerates inactivation
normalized area under curve (AUC) ratio of activated sodium current [2, 6]: substantially reduces
inhibition at 50 µM [2, 5]: ~32%
inhibition at 50 µM ([2]; HEK293, −65 mV for 10 s, read-out: Normalized inhibition of peak sodium current after 10 s pulse to mid-voltage potential): ~80%
SMILES: Cc1nc(-n2cccc2)sc1C(=O)N=c1[nH]c2ccccc2[nH]1 [ZINC12323863, N-(1H-benzimidazol-2-yl)-4-methyl-2-pyrrol-1-yl-thiazole-5-carboxamide]
deceleration of fast inactivation onset kinetics compared to control ([1]; 50 μM): 1.5 fold
inhibition at 50 µM [1, 5]: ~32%
inhibition at 50 µM ([1]; HEK293, −90 mV for 10 s, read-out: Normalized inhibition of peak sodium current after 10 s pulse to mid-voltage potential): ~80%

SMILES: CN(C)[C@@H](CNC(=O)c1ccc2c(c1)=NC(=O)C(=O)N=2)c1ccco1 [ZINC40014265, N-[(2S)-2-(dimethylamino)-2-(2-furyl)ethyl]-2,3-dioxo-quinoxaline-6-carboxamide]
% Block −20 mV ([3]; 10 μM): −20.00%
fast inactivation onset time constant FI +10 mV ([3]; 10 μM): 0.23 ± 0.02 ms
fast inactivation onset time constant FI −10 mV ([3]; 10 μM): 0.33 ± 0.03 ms
fast inactivation onset time constant FI −30 mV ([3]; 10 μM): 0.63 ± 0.07 ms
fast inactivation onset time constant FI −50 mV ([3]; 10 μM): 2.98 ± 0.84 ms
Peak INa −20 mV ([3]; 10 μM): −0.80 ± 0.06
% Block −20 mV ([3]; 50 μM): −37.00%
fast inactivation onset time constant FI +10 mV ([3]; 50 μM): 0.25 ± 0.03 ms
fast inactivation onset time constant FI −10 mV ([3]; 50 μM): 0.37 ± 0.05 ms
fast inactivation onset time constant FI −30 mV ([3]; 50 μM): 0.69 ± 0.11 ms
fast inactivation onset time constant FI −50 mV ([3]; 50 μM): 2.18 ± 0.70 ms
Peak INa −20 mV ([3]; 50 μM): −0.63 ± 0.06
% Block −20 mV ([3]; 100 μM): −41.00%
fast inactivation onset time constant FI +10 mV ([3]; 100 μM): 0.26 ± 0.07 ms
fast inactivation onset time constant FI −10 mV ([3]; 100 μM): 0.37 ± 0.09 ms
fast inactivation onset time constant FI −30 mV ([3]; 100 μM): 0.69 ± 0.17 ms
fast inactivation onset time constant FI −50 mV ([3]; 100 μM): 2.17 ± 0.73 ms
Peak INa −20 mV ([3]; 100 μM): −0.59 ± 0.06
Peak INa Slope ([3]; Hill curve slope): 1.064
pIC50 ([3]; Hill curve, single voltage-pulse protocol): 4.90
UDI Block Slope ([4]; Hill curve slope): 0.511
pIC50 ([4]; Hill curve, use-dependence at 6 Hz, read-out: UDI Block IC50): 3.57
effect on peak INa [1, 6]: did not inhibit peak sodium current
normalized area under curve (AUC) ratio of activated sodium current [1, 6]: slightly increased
deceleration of fast inactivation onset kinetics compared to control ([1]; 50 μM): 1.5 fold
